Measured values published in US9376391B2, “Difluoromethyl-nicotinic-tetrahydronaphthyl carboxamides as fungicides” (BAYER CROPSCIENCE AKTIENGESELLSCHAFT, priority 2012, dated 2016).

What was measured:
Uromyces appendiculatus = assay: In vivo preventive test on Uromyces appendiculatus (bean rust); details: preventive spray, bean plants, grading 11 days after contamination
Protocol: In Vivo Preventive Test on Uromyces appendiculatus (Bean Rust) […] Bean plants (“Saxa” variety), sown in starter cups on a 50/50 peat soil-pozzolana substrate and grown at 24° C., are treated at the 2-leaf stage (9 cm height) by spraying with the active ingredient prepared as described above. Plants, used as controls, are treated with the mixture of acetone/tween/DMSO/water not containing the active material. After 24 hours, the plants are contaminated by spraying the leaves with an aqueous suspension of Uromyces appendiculatus spores (150 000 spores per ml). The spores are collected from infected plants and are suspended in water containing 2.5 ml/1 of Tween 80 at 10%. The contaminated bean plants are incubated for 24 hours at 20° C. and at 100% relative humidity, and then for 10 days at 20° C. and at 70-80% relative humidity. Grading (% of efficacy) is carried out 11 days after the contamination, in comparison with the control plants.

[1] = log P by HPLC on reversed phase columns (EEC directive 79/831 Annex V.A8); assay type: physicochemical; details: Table 1, formula (I); HPLC/LC-MS at pH 2.7, 0.1% formic acid in water / acetonitrile, gradient 10% to 95%
Alternaria brassicae = assay: In vivo preventive test on Alternaria brassicae (leaf spot on radish); details: spray, graded 6 days after contamination vs control plants
Protocol: In Vivo Preventive Test on Alternaria brassicae (Leaf Spot on Radish)
(§1) The active ingredients tested are prepared by homogenization in a mixture of acetone/tween/DMSO, and then diluted with water to obtain the desired active material concentration.
Radish plants (“Pernod Clair” variety), sown in starter cups on a 50/50 peat soil-pozzolana substrate and grown at 17° C., are treated at the cotyledon stage by spraying with the active ingredient prepared as described above. Plants, used as controls, are treated with the mixture of acetone/tween/DMSO/water not containing the active material.
After 24 hours, the plants are contaminated by spraying the cotyledons with an aqueous suspension of Alternaria brassicae spores (50 000 spores per ml). The spores are collected from a 15-day-old culture. The contaminated radish plants are incubated at 20° C. and at 100% relative humidity.
Grading (% of efficacy) is carried out 6 days after the contamination, in comparison with the control plants.

Sphaerotheca fuliginea = assay: In vivo preventive test on Sphaerotheca fuliginea (powdery mildew on cucurbits); details: for Eff. %: preventive spray
Protocol: In Vivo Preventive Test on Sphaerotheca fuliginea (Powdery Mildew on Cucurbits)
(§2) The active ingredients tested are prepared by homogenization in a mixture of acetone/tween/DMSO and then diluted with water to obtain the desired active material concentration.
(§3) Gherkin plants (“Vert petit de Paris” variety), sown in starter cups on a 50/50 peat soil-pozzolana substrate and grown at 24° C., are treated at the Z11 cotyledon stage by spraying with the active ingredient prepared as described above. Plants, used as controls, are treated with the mixture of acetone/tween/DMSO/water not containing the active material.
After 24 hours, the plants are contaminated by spraying the cotyledons with an aqueous suspension of Sphaerotheca fuliginea spores (100 000 spores per ml). The spores are collected from infected plants. The contaminated gherkin plants are incubated at about 20° C. and at 70-80% relative humidity.
Grading (% of efficacy) is carried out 12 days after the contamination, in comparison with the control plants.

Pyrenophora teres = assay: In vivo preventive test on Pyrenophora teres (net blotch on barley); details: for Eff. %: barley, spray, graded 14 days after contamination vs control plants
Protocol: In Vivo Preventive Test on Pyrenophora teres (Net Blotch on Barley)
as §1
Barley plants (“Plaisant” variety), sown in starter cups on a 50/50 peat soil-pozzolana substrate and grown at 22° C., are treated at the 1-leaf stage (10 cm height) by spraying with the active ingredient prepared as described above. Plants, used as controls, are treated with the mixture of acetone/tween/DMSO/water not containing the active material.
After 24 hours, the plants are contaminated by spraying the leaves with an aqueous suspension of Pyrenophora teres spores (12 000 spores per ml). The spores are collected from a 12-day-old culture. The contaminated barley plants are incubated for 48 hours at 20° C. and at 100% relative humidity, and then for 12 days at 20° C. at 70-80% relative humidity.
Grading (% of efficacy) is carried out 14 days after the contamination, in comparison with the control plants. plants.

Septoria tritici = assay: In vivo preventive test on Septoria tritici (leaf spot on wheat); details: preventive spray, wheat plants, grading 24 days after contamination
Protocol: In Vivo Preventive Test on Septoria tritici (Leaf Spot on Wheat)
as §1
Wheat plants (“Scipion” variety), sown in starter cups on a 50/50 peat soil-pozzolana substrate and grown at 22° C., are treated at the 1-leaf stage (10 cm height) by spraying with the active ingredient prepared as described above. Plants, used as controls, are treated with the mixture of acetone/tween/DMSO/water not containing the active material.
After 24 hours, the plants are contaminated by spraying the leaves with an aqueous suspension of cryopreserved Septoria tritici spores (500 000 spores per ml). The contaminated wheat plants are incubated for 72 hours at 18° C. and at 100% relative humidity, and then for 21 days at 90% relative humidity.
Grading (% of efficacy) is carried out 24 days after the contamination, in comparison with the control plants.

Puccinia recondita = assay: In vivo preventive test on Puccinia recondita (brown rust on wheat); details: for Eff. %: wheat, spray, graded 12 days after contamination vs control plants
Protocol: In Vivo Preventive Test on Puccinia recondita (Brown Rust on Wheat) […] Wheat plants (“Scipion” variety), sown in starter cups on a 50/50 peat soil-pozzolana substrate and grown at 22° C., are treated at the 1-leaf stage (10 cm height) by spraying with the active ingredient prepared as described above. Plants, used as controls, are treated with the mixture of acetone/tween/DMSO/water not containing the active material. After 24 hours, the plants are contaminated by spraying the leaves with an aqueous suspension of Puccinia recondita spores (100 000 spores per ml). The spores are collected from an infected plant and are suspended in water containing 2.5 ml/1 of Tween 80 at 10%. The contaminated wheat plants are incubated for 24 hours at 20° C. and at 100% relative humidity, and then for 10 days at 20° C. and at 70-80% relative humidity. Grading (% of efficacy) is carried out 12 days after the contamination, in comparison with the control plants.

Botrytis cinerea = assay: In vivo preventive test on Botrytis cinerea (grey mould), gherkin plants; details: for Eff. %: gherkin, spray, graded 4 to 5 days after contamination vs control plants
Protocol: In Vivo Preventive Test on Botrytis cinerea (Grey Mould)
as §2, §3
After 24 hours, the plants are contaminated by spraying the cotyledons with an aqueous suspension of cryopreserved Botrytis cinerea spores (50 000 spores per ml). The spores are suspended in a nutrient solution composed of 10 g/L of PDB, 50 g/L of D-Fructose, 2 g/L of NH4NO3 and 1 g/L of KH2PO4. The contaminated gherkin plants are incubated at 17° C. and at 90% relative humidity.
Grading (% of efficacy) is carried out 4 to 5 days after the contamination, in comparison with the control plants.

[2] = 100 ppm, gherkin plants, grading 12 days after contamination
[3] = 500 ppm, gherkin plants, grading 12 days after contamination
[4] = dose 100 ppm of active ingredient, comparison with known compounds
[5] = dose 100 ppm, comparison with known compounds, same conditions

SMILES	Eff. % (Uromyces appendiculatus; 100 ppm) [%]	logP^[a] [1]	Eff. % (Sphaerotheca fuliginea; [2]) [%]	Eff. % (Pyrenophora teres; dose 100 ppm) [%]	Eff. % (Septoria tritici; 100 ppm) [%]	Eff. % (Puccinia recondita; dose 100 ppm) [%]	Eff. % (Uromyces appendiculatus; 500 ppm) [%]	Eff. % (Alternaria brassicae; dose 500 ppm) [%]	Eff. % (Pyrenophora teres; dose 500 ppm) [%]	Eff. % (Septoria tritici; 500 ppm) [%]	Eff. % (Puccinia recondita; dose 500 ppm) [%]	Eff. % (Sphaerotheca fuliginea; [3]) [%]	further results
CC(C)C1OC(C)(C)c2cccc(NC(=O)c3cccnc3C(F)F)c21 (racemic) [Example 76]	96	2.73^[a]	98	92	97	94							Eff. % (Alternaria brassicae; dose 100 ppm): 75%; Eff. % (Botrytis cinerea; dose 100 ppm): 98%
CC1CCc2cccc(NC(=O)c3cccnc3C(F)F)c21 (racemic) [Example 4]		2.63^[a]					100	71	75	100	97		
CC1c2c(NC(=O)c3cccnc3C(F)F)cccc2C(C)(C)C1C (centres unmarked) [Example 33]		3.48^[a]					100	100		100	100	100	Eff. % (Botrytis cinerea; dose 500 ppm): 97%
CC1CC(C)(C)c2c(F)ccc(NC(=O)c3cccnc3C(F)F)c21 (centres unmarked) [Example 2]		3.35^[a]					100	98		100	100	100	Eff. % (Botrytis cinerea; dose 500 ppm): 97%
CCC1Cc2c(NC(=S)c3cccnc3C(F)F)cccc2C1(C)C (centres unmarked) [Example 69]	100	4.16^[a]	100	70	80	100							
CC(C)CC1CCc2cccc(NC(=O)c3cccnc3C(F)F)c21 (centres unmarked) [Example 84]	100	3.62^[a]	100	75	100	97							Eff. % (Botrytis cinerea; dose 100 ppm): 99%
CC(C)C1Cc2c(NC(=S)c3cccnc3C(F)F)cccc2C1(C)C (centres unmarked) [Example 65]	100	4.46^[a]	98	70	80	98							Eff. % (Botrytis cinerea; dose 100 ppm): 100%
CC1CC(C)(C)c2cccc(NC(=O)c3ccccc3C(F)F)c21 (centres unmarked) [2-(difluoromethyl)-N-(1,1,3-trimethyl-2,3-dihydro-1H-inden-4-yl)benzamide, reference compound]													protection (in words) (Sphaerotheca fuliginea; [4]): lower protection; Efficacy (Sphaerotheca fuliginea; dose 100 ppm, comparison with prior-art compounds, gherkin plants, grading 12 days after contamination): 0%; protection (in words) (Pyrenophora teres; [4]): lower protection; Efficacy (Pyrenophora teres; [5]): 0%; protection (in words) (Puccinia recondita; [4]): low protection; Efficacy (Puccinia recondita; [5]): 83%; protection (in words) (Botrytis cinerea; [4]): no protection at all; Efficacy (Botrytis cinerea; [5]): 0%
CC1Cc2c(NC(=O)c3cccnc3C(F)F)cccc2C1C (centres unmarked) [Example 36]		3.06^[a]					100		75		98		
CC1OC(C)(C)c2cccc(NC(=O)c3cccnc3C(F)F)c21 (racemic) [Example 12]		2.11^[a]					100		86	96	100		Eff. % (Botrytis cinerea; dose 500 ppm): 100%
CCC1(CC)OC(C(C)C)c2c(NC(=O)c3cccnc3C(F)F)cccc21 (racemic) [Example 56]		3.64^[a]					100	93	92	93	88	98	
CC(C)(C)CC1CCc2cccc(NC(=O)c3cccnc3C(F)F)c21 (centres unmarked) [Example 90]	100	3.92^[a]	100	86	96	98							Eff. % (Alternaria brassicae; dose 100 ppm): 93%; Eff. % (Botrytis cinerea; dose 100 ppm): 80%
CC(C)C1c2cccc(NC(=O)c3cccnc3C(F)F)c2CC1C (centres unmarked) [Example 27]		3.78^[a]					100		83	86	100	100	Eff. % (Botrytis cinerea; dose 500 ppm): 100%
CCON=C1CC(C)c2c(NC(=O)c3cccnc3C(F)F)cccc21 (racemic) [Example 52]		2.71^[a]					93	86	75	86			
CC(C)(C)C1CCc2c(NC(=O)c3cccnc3C(F)F)cccc21 (racemic) [Example 39]		3.78^[a]					100		83	86	98	94	
CCCCON=C1CC(C)c2c(NC(=O)c3cccnc3C(F)F)cccc21 (racemic) [Example 51]		3.18^[a]					70	93	83		75		
